Assay results as given in patent US6930075B1, “Fatty acid-based herbicidal composition” (priority 1990, dated 2005).

What was measured:
Assay in all cases: Greenhouse post-emergence spray, plant damage rating
Type in all cases: in vivo
[1] = system: Sinapis arvensis (wild mustard); details: S. arvensis, alone and combined
Protocol: (§1) Three species of weed, used in each test: Hypochoeris radicata (false dandelion), Sinapis, arvensis (wild mustard), and Avena sativa (oats), were grown in a greenhouse facility in 5.5 cm square pots using a potting soil mix comprising peat, vermiculite, sand, and 4-10-10 fertilizer. Water-soluble 20-20-20 fertilizer was used as a supplement for the plants as required. The plants were selected for use based on uniformity and quality and were potted separately. One plant per pot each of H. radicata (6–10 leaves) and S. arvensis (4–6 leaves) were used. Six to eight plants of A. sativa (2–4 leaves) were used per pot. After spraying with a herbicidal composition (as described below) the pots were arranged in a randomized complete block design in sub-irrigated watering trays. Six to ten replicates (pots) were used per treatment.
(§2) Herbicidal treatments were applied using a spray chamber fitted with a TeeJet 8006E flat fan nozzle (available from Spraying Systems Co., Wheaton, Ill.), calibrated to spray at a volume of 60 gpa at 40 psi. Treatment solutions were freshly prepared for each experiment. Plant damage was assessed at 10 to 14 days after treatment using a pre-transformed 0–10 rating scale (0 representing no damage, 10 representing plant death) in accordance with the procedure outlined in Statistical Methods in Agricultural Research, Little, T. M. et al, J. Wiley and Sons, 1975, pp. 119–120, 218.

[2] = system: Hypochoeris radicata (false dandelion); details: H. radicata, alone and combined
Protocol: as §1, §2

Avena sativa (oats) = details: A. sativa, alone and combined
Protocol: as §1, §2

[3] = Table 2 set 1: Round-Up 0.1%, Sodium pelargonate 0.1%
[4] = Table 2 set 2: Round-Up 0.1%, Sodium pelargonate 0.1% (so in the source)
[5] = Table 2 set 3: Round-Up 0.1%, Sodium pelargonate 0.1% (so in the source)

In the case of `CCCCCCCCC(=O)[O-].[Na+]` [Sodium pelargonate], the “Phytotoxicity (%) Observed” value [1, 3] is reported as 0%, the “Phytotoxicity (%) Observed” value [1, 4] is reported as 0% and the “Phytotoxicity (%) Observed” value [1, 5] is reported as 0%. For the same molecule, the “Phytotoxicity (%) Observed” value [2, 3] was 0%, the “Phytotoxicity (%) Observed” value [2, 4] was 0% and the “Phytotoxicity (%) Observed” value [2, 5] was 0%. For the same molecule, the “Phytotoxicity (%) Observed” value (Avena sativa (oats); [3]) was 0%, the “Phytotoxicity (%) Observed” value (Avena sativa (oats); [4]) was 0% and the “Phytotoxicity (%) Observed” value (Avena sativa (oats); [5]) was 1%.
